{"source": "PubChem BioAssay (NCI)", "assay_in_all_cases": "inhibition of tumour cell growth, NCI panel, 48 h", "key": {"NCI-H226 lung": {"test_system": "NCI-H226 lung"}, "M14 melanoma": {"test_system": "M14 melanoma"}, "OVCAR-4 ovarian": {"test_system": "OVCAR-4 ovarian"}, "K-562 leukemia": {"test_system": "K-562 leukemia"}, "DLD-1 colon": {"test_system": "DLD-1 colon"}, "OVCAR-3 ovarian": {"test_system": "OVCAR-3 ovarian"}, "KM12 colon": {"test_system": "KM12 colon"}, "UACC-62 melanoma": {"test_system": "UACC-62 melanoma"}, "HCT-15 colon": {"test_system": "HCT-15 colon"}, "SK-OV-3 ovarian": {"test_system": "SK-OV-3 ovarian"}, "DMS 273 small cell lung": {"test_system": "DMS 273 small cell lung"}, "U251 CNS": {"test_system": "U251 CNS"}, "NCI-H522 lung": {"test_system": "NCI-H522 lung"}, "SF-295 CNS": {"test_system": "SF-295 CNS"}, "RXF 393 renal": {"test_system": "RXF 393 renal"}, "SK-MEL-2 melanoma": {"test_system": "SK-MEL-2 melanoma"}, "HOP-62 NSCLC": {"test_system": "HOP-62 NSCLC"}, "OVCAR-5 ovarian": {"test_system": "OVCAR-5 ovarian"}, "DMS 114 small cell lung": {"test_system": "DMS 114 small cell lung"}, "IGROV1 ovarian": {"test_system": "IGROV1 ovarian"}, "SW-620 colon": {"test_system": "SW-620 colon"}, "COLO 205 colon": {"test_system": "COLO 205 colon"}, "KM20L2 colon": {"test_system": "KM20L2 colon"}, "OVCAR-8 ovarian": {"test_system": "OVCAR-8 ovarian"}, "SNB-19 CNS": {"test_system": "SNB-19 CNS"}, "SK-MEL-5 melanoma": {"test_system": "SK-MEL-5 melanoma"}, "LOX IMVI melanoma": {"test_system": "LOX IMVI melanoma"}, "HL-60(TB) leukemia": {"test_system": "HL-60(TB) leukemia"}, "CCRF-CEM leukemia": {"test_system": "CCRF-CEM leukemia"}, "A498 renal": {"test_system": "A498 renal"}, "UO-31 renal": {"test_system": "UO-31 renal"}, "ACHN renal": {"test_system": "ACHN renal"}, "SNB-78 CNS": {"test_system": "SNB-78 CNS"}, "A549 NSCLC": {"test_system": "A549 NSCLC"}, "LXFL 529 NSCLC": {"test_system": "LXFL 529 NSCLC"}, "HCC-2998 colon": {"test_system": "HCC-2998 colon"}, "XF 498 CNS": {"test_system": "XF 498 CNS"}, "SNB-75 CNS": {"test_system": "SNB-75 CNS"}, "M19-MEL melanoma": {"test_system": "M19-MEL melanoma"}, "SK-MEL-28 melanoma": {"test_system": "SK-MEL-28 melanoma"}, "SF-268 CNS": {"test_system": "SF-268 CNS"}, "MOLT-4 leukemia": {"test_system": "MOLT-4 leukemia"}, "TK-10 renal": {"test_system": "TK-10 renal"}, "EKVX NSCLC": {"test_system": "EKVX NSCLC"}, "786-0 renal": {"test_system": "786-0 renal"}, "SF-539 CNS": {"test_system": "SF-539 CNS"}, "NCI-H460 lung": {"test_system": "NCI-H460 lung"}, "HT29 colon": {"test_system": "HT29 colon"}, "HCT-116 colon": {"test_system": "HCT-116 colon"}, "MALME-3M melanoma": {"test_system": "MALME-3M melanoma"}, "UACC-257 melanoma": {"test_system": "UACC-257 melanoma"}, "RPMI-8226 leukemia": {"test_system": "RPMI-8226 leukemia"}, "SN12C renal": {"test_system": "SN12C renal"}, "NCI-H23 lung": {"test_system": "NCI-H23 lung"}, "CAKI-1 renal": {"test_system": "CAKI-1 renal"}, "HOP-92 NSCLC": {"test_system": "HOP-92 NSCLC"}}, "note": "Where “and” joins values, the source holds several entries; their conditions need not be identical. Identical values can stand only once.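 A five-concentration, 48-hour dose response in 96-well plates underlies each endpoint, interpolated linearly between surrounding concentrations. GI50: concentration for 50% inhibition of growth. Definition used: TGI = concentration required for complete inhibition of growth.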"}
{"smiles": "CCOC(=O)/N=c1\\ss/c(=N\\C(=S)N(C)C)n1-c1ccccc1", "values": [{"measurement": "GI50", "setting": "NCI-H226 lung", "value": "> 100", "unit": "µM"}, {"measurement": "TGI", "setting": "NCI-H226 lung", "value": "> 100", "unit": "µM"}, {"measurement": "GI50", "setting": "M14 melanoma", "value": "> 100", "unit": "µM"}, {"measurement": "TGI", "setting": "M14 melanoma", "value": "> 100", "unit": "µM"}, {"measurement": "GI50", "setting": "OVCAR-4 ovarian", "value": "> 100", "unit": "µM"}, {"measurement": "TGI", "setting": "K-562 leukemia", "value": "> 100", "unit": "µM"}, {"measurement": "GI50", "setting": "DLD-1 colon", "value": "> 100", "unit": "µM"}, {"measurement": "TGI", "setting": "DLD-1 colon", "value": "> 100", "unit": "µM"}, {"measurement": "GI50", "setting": "OVCAR-3 ovarian", "value": 23.2, "unit": "µM"}, {"measurement": "GI50", "setting": "KM12 colon", "value": "> 100", "unit": "µM"}, {"measurement": "TGI", "setting": "KM12 colon", "value": "> 100", "unit": "µM"}, {"measurement": "TGI", "setting": "UACC-62 melanoma", "value": "> 100", "unit": "µM"}, {"measurement": "GI50", "setting": "HCT-15 colon", "value": "> 100", "unit": "µM"}, {"measurement": "TGI", "setting": "HCT-15 colon", "value": "> 100", "unit": "µM"}, {"measurement": "GI50", "setting": "SK-OV-3 ovarian", "value": "> 100", "unit": "µM"}, {"measurement": "TGI", "setting": "SK-OV-3 ovarian", "value": "> 100", "unit": "µM"}, {"measurement": "GI50", "setting": "DMS 273 small cell lung", "value": 77.1, "unit": "µM"}, {"measurement": "TGI", "setting": "DMS 273 small cell lung", "value": "> 100", "unit": "µM"}, {"measurement": "TGI", "setting": "U251 CNS", "value": 71.3, "unit": "µM"}, {"measurement": "GI50", "setting": "NCI-H522 lung", "value": 0.401, "unit": "µM"}, {"measurement": "TGI", "setting": "SF-295 CNS", "value": "> 100", "unit": "µM"}, {"measurement": "GI50", "setting": "RXF 393 renal", "value": 15.3, "unit": "µM"}, {"measurement": "TGI", "setting": "RXF 393 renal", "value": "7.13 µM and 44.2 µM"}, {"measurement": "TGI", "setting": "SK-MEL-2 melanoma", "value": "> 100", "unit": "µM"}, {"measurement": "TGI", "setting": "HOP-62 NSCLC", "value": "> 100", "unit": "µM"}, {"measurement": "TGI", "setting": "OVCAR-5 ovarian", "value": "> 100", "unit": "µM"}, {"measurement": "GI50", "setting": "DMS 114 small cell lung", "value": "> 100", "unit": "µM"}, {"measurement": "GI50", "setting": "IGROV1 ovarian", "value": "> 100", "unit": "µM"}, {"measurement": "TGI", "setting": "IGROV1 ovarian", "value": "> 100", "unit": "µM"}, {"measurement": "GI50", "setting": "SW-620 colon", "value": "> 100", "unit": "µM"}, {"measurement": "TGI", "setting": "SW-620 colon", "value": "> 100", "unit": "µM"}, {"measurement": "GI50", "setting": "COLO 205 colon", "value": "> 100", "unit": "µM"}, {"measurement": "TGI", "setting": "COLO 205 colon", "value": "> 100", "unit": "µM"}, {"measurement": "GI50", "setting": "KM20L2 colon", "value": "> 100", "unit": "µM"}, {"measurement": "TGI", "setting": "KM20L2 colon", "value": "> 100", "unit": "µM"}, {"measurement": "GI50", "setting": "OVCAR-8 ovarian", "value": "> 100", "unit": "µM"}, {"measurement": "TGI", "setting": "OVCAR-8 ovarian", "value": "> 100", "unit": "µM"}, {"measurement": "TGI", "setting": "SNB-19 CNS", "value": "> 100", "unit": "µM"}, {"measurement": "GI50", "setting": "SK-MEL-5 melanoma", "value": 18.8, "unit": "µM"}, {"measurement": "TGI", "setting": "SK-MEL-5 melanoma", "value": "> 100", "unit": "µM"}, {"measurement": "TGI", "setting": "LOX IMVI melanoma", "value": "> 100", "unit": "µM"}, {"measurement": "GI50", "setting": "HL-60(TB) leukemia", "value": "> 100", "unit": "µM"}, {"measurement": "TGI", "setting": "HL-60(TB) leukemia", "value": "> 100", "unit": "µM"}, {"measurement": "TGI", "setting": "CCRF-CEM leukemia", "value": "> 100", "unit": "µM"}, {"measurement": "GI50", "setting": "A498 renal", "value": 35, "unit": "µM"}, {"measurement": "TGI", "setting": "A498 renal", "value": "> 100", "unit": "µM"}, {"measurement": "GI50", "setting": "UO-31 renal", "value": "> 100", "unit": "µM"}, {"measurement": "TGI", "setting": "UO-31 renal", "value": "> 100", "unit": "µM"}, {"measurement": "TGI", "setting": "ACHN renal", "value": "> 100", "unit": "µM"}, {"measurement": "TGI", "setting": "SNB-78 CNS", "value": "> 100", "unit": "µM"}, {"measurement": "GI50", "setting": "A549 NSCLC", "value": "> 100", "unit": "µM"}, {"measurement": "TGI", "setting": "A549 NSCLC", "value": "> 100", "unit": "µM"}, {"measurement": "TGI", "setting": "LXFL 529 NSCLC", "value": "> 100", "unit": "µM"}, {"measurement": "GI50", "setting": "HCC-2998 colon", "value": "> 100", "unit": "µM"}, {"measurement": "TGI", "setting": "HCC-2998 colon", "value": "> 100", "unit": "µM"}, {"measurement": "TGI", "setting": "XF 498 CNS", "value": "> 100", "unit": "µM"}, {"measurement": "GI50", "setting": "SNB-75 CNS", "value": 4.69, "unit": "µM"}, {"measurement": "TGI", "setting": "SNB-75 CNS", "value": 28.3, "unit": "µM"}, {"measurement": "GI50", "setting": "M19-MEL melanoma", "value": "> 100", "unit": "µM"}, {"measurement": "GI50", "setting": "SK-MEL-28 melanoma", "value": 28.7, "unit": "µM"}, {"measurement": "TGI", "setting": "SK-MEL-28 melanoma", "value": "> 100", "unit": "µM"}, {"measurement": "GI50", "setting": "SF-268 CNS", "value": 44.7, "unit": "µM"}, {"measurement": "TGI", "setting": "SF-268 CNS", "value": "> 100", "unit": "µM"}, {"measurement": "GI50", "setting": "MOLT-4 leukemia", "value": "> 100", "unit": "µM"}, {"measurement": "TGI", "setting": "MOLT-4 leukemia", "value": "> 100", "unit": "µM"}, {"measurement": "TGI", "setting": "TK-10 renal", "value": "> 100", "unit": "µM"}, {"measurement": "TGI", "setting": "EKVX NSCLC", "value": "> 100", "unit": "µM"}, {"measurement": "TGI", "setting": "786-0 renal", "value": "> 100", "unit": "µM"}, {"measurement": "TGI", "setting": "SF-539 CNS", "value": "> 100", "unit": "µM"}, {"measurement": "GI50", "setting": "NCI-H460 lung", "value": 35.2, "unit": "µM"}, {"measurement": "TGI", "setting": "NCI-H460 lung", "value": "> 100", "unit": "µM"}, {"measurement": "TGI", "setting": "HT29 colon", "value": "> 100", "unit": "µM"}, {"measurement": "GI50", "setting": "HCT-116 colon", "value": "> 100", "unit": "µM"}, {"measurement": "TGI", "setting": "HCT-116 colon", "value": "> 100", "unit": "µM"}, {"measurement": "GI50", "setting": "MALME-3M melanoma", "value": "> 100", "unit": "µM"}, {"measurement": "TGI", "setting": "MALME-3M melanoma", "value": "> 100", "unit": "µM"}, {"measurement": "GI50", "setting": "UACC-257 melanoma", "value": "> 100", "unit": "µM"}, {"measurement": "TGI", "setting": "UACC-257 melanoma", "value": "> 100", "unit": "µM"}, {"measurement": "GI50", "setting": "RPMI-8226 leukemia", "value": "> 100", "unit": "µM"}, {"measurement": "TGI", "setting": "RPMI-8226 leukemia", "value": "> 100", "unit": "µM"}, {"measurement": "GI50", "setting": "SN12C renal", "value": "> 100", "unit": "µM"}, {"measurement": "TGI", "setting": "SN12C renal", "value": "> 100", "unit": "µM"}, {"measurement": "TGI", "setting": "NCI-H23 lung", "value": "> 100", "unit": "µM"}, {"measurement": "TGI", "setting": "CAKI-1 renal", "value": "> 100", "unit": "µM"}, {"measurement": "TGI", "setting": "HOP-92 NSCLC", "value": 94.2, "unit": "µM"}]}
